In patent US11802108B2, “Compounds for the modulation of cyclophilins function” (The University Court of The University of Edinburgh, priority 2018, dated 2023):
Where a name gives a salt, the structure may show the parent alone.

What was measured:
[1] = biological target: T1, CypA (Homo sapiens (Human), UniProt P62937); experiment: X-ray co-crystal structure with CypA; for CypA X-ray co-crystal: key: Y: observed in cocrystal; N: not observed in cocrystal; format: binding; details: for CypA X-ray co-crystal: apo CypA crystals soaked with 5 mM ligand; for binding mode in co-crystal structure of CypA: FIG. 1
T1 sequence (P62937 whole entry, the tested form may be a part): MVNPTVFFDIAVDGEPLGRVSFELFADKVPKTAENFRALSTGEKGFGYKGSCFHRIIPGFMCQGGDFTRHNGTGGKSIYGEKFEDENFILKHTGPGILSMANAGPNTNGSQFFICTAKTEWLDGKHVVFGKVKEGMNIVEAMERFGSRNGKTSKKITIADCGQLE
Description: Purified and his-tag-cleaved CypA was buffer-exchanged into PBS and concentrated to ˜29 mg ml^−1. For crystallisation 1 μL of protein was mixed with an equal volume of the well solution, consisting of 100 mM Tris-HCl pH8.0 and 20-22% v/v PEG 8000, and crystal formation came about after equilibration overnight in 6° C. by vapour diffusion using the hanging drop method over 1 mL of the same well solution. Apo CypA crystals were soaked overnight into different ligand solution consisting of 100 mM Tris-HCl pH 8.0, 35% w/v PEG 8000, 5% v/v Glycerol, 5% v/v DMSO and 5 mM ligand, before flash frozen into liquid nitrogen. X-ray data were collected at the Diamond synchrotron-radiation facility in Oxford-shire, England at 100K. Structures were solved by molecular replacement using DIMPLE from the CCP4i suite. Modelled structures were visualised and manually adjusted as needed using Coot10 and further refined using REFMAC5 from CCP4i.
FIG. 1A summarises the mode of binding of certain prior-art urea small molecule Cyp inhibitors.

[2] = biological target: T1, CypA; experiment: Isothermal titration calorimetry (ITC) binding to CypA; details: 25° C.
Description: All ITC experiments for the ester series compounds were carried out at 25° C. on a MicroCal Auto iTC200 (GE Healthcare) instrument. The buffer used in the titrations of the compounds belonging to the ester series was 50 mM phosphate buffer, pH 6.5 and the concentration of DMSO was 2% v/v for all the compounds, unless otherwise stated in Table 51. Final compound solutions were heated to 65° C. and/or sonicated prior to the experiment. Each experiment consisted of an initial injection of 0.4 μL followed by nineteen 2 μL injections and in most of cases for these compounds, the “continue injections” protocol was used leaving the cell intact and performing a second series of titrations using the above protocol to achieve saturation. Control experiments were performed, where each compound was titrated into buffer and when small amount of heat was detected due to heat of dilution, it was subtracted when processing the data using a linear fit method. In all cases the first injection was omitted from the data processing. All data were analysed using the MicroCal PEAQ-ITC Analysis software.
The buffer used for these titrations was: PBS, 0.05% v/v P20 surfactant, 50 μM EDTA in presence of 2% v/v EtOH and the pH was set to 7.4.

| SMILES | CypA X-ray co-crystal [1] | Kd [2] [µM] | binding mode in co-crystal structure of CypA [1] |
| --- | --- | --- | --- |
| CCOC(=O)[C@H](CCSC)NC(=O)N(CC)Cc1ccc(N)cc1 [Compound 15, Ethyl (2S)-2-({[(4-aminophenyl)methyl](ethyl)carbamoyl}amino)-4-(methylsulfanyl)butanoate hydrochloride] | Y | 35 ± 5 | – |
| CCCN(Cc1ccc(N)cc1)C(=O)NCC(=O)OCC [Compound 16, Ethyl 2-({[(4-aminophenyl)methyl](propyl)carbamoyl}amino)acetate] | Y | 266 ± 3 | – |
| CCN(Cc1ccc(N)cc1)C(=O)NCC(=O)N1CCCC1c1ccccc1 (stereo not shown) [Compound 9, 1-[(4-aminophenyl)methyl]-3-{2-[2-(phenyl)pyrrolidin-1-yl]-2-oxoethyl}-1-ethylurea] | Y | 35 ± 5 | – |
| CCOC(=O)CNC(=O)N(Cc1ccc(N)cc1)Cc1cn(C)nn1.Cl [Compound 18, Ethyl 2-({[(4-aminophenyl)methyl][(1-methyl-1H-1,2,3-triazol-4-yl)methyl]carbamoyl}amino)acetate hydrochloride] | Y | 135 ± 6 | – |
| Cl.Nc1ccc(CN(CC2CC2)C(=O)NCC(=O)N2CCCC2c2ccccc2Br)cc1 (stereo not shown) [Compound 11, 1-[(4-aminophenyl)methyl]-3-{2-[2-(2-bromophenyl)pyrrolidin-1-yl]-2-oxoethyl}-1-(cyclopropylmethyl)urea] | Y | ~10 | – |
| CCN(Cc1ccc(N)cc1)C(=O)NCC(=O)N1CCCC1c1ccccc1Br.Cl (stereo not shown) [Compound 10, 1-[(4-aminophenyl)methyl]-3-{2-[2-(2-bromophenyl)pyrrolidin-1-yl]-2-oxoethyl}-1-ethylurea hydrochloride] | N | ~25 | – |
| CCOC(=O)CNC(=O)N(CC)Cc1ccc(N)cc1.Cl [Compound 12, Ethyl 2-({[(4-aminophenyl)methyl](ethyl)carbamoyl}amino)acetate hydrochloride] | Y | 200 ± 5 | type-I binding mode |
| CCOC(=O)CNC(=O)N(Cc1ccc(N)cc1)CC1CC1.Cl [Compound 17, Ethyl 2-({[(4-aminophenyl)methyl](cyclopropylmethyl)carbamoyl}amino)acetate hydrochloride] | Y | – | – |
| CCOC(=O)CNC(=O)N(Cc1ccc(N)cc1)Cc1nnn[nH]1.Cl [Compound 14, Ethyl 2-({[(4-aminophenyl)methyl][(1H-1,2,3,4-tetrazol-5-yl)methyl]carbamoyl}amino)acetate hydrochloride] | N | 139 ± 4 | – |
| Cl.Cn1cc(CN(Cc2ccc(N)cc2)C(=O)NCC(=O)N2CCCC2c2ccccc2Cl)nn1 (stereo not shown) [Compound 8, 1-[(4-aminophenyl)methyl]-3-{2-[2-(2-chlorophenyl)pyrrolidin-1-yl]-2-oxoethyl}-1-[(1-methyl-1H-1,2,3-triazol-4-yl)methyl]urea hydrochloride] | N | 1.1 ± 0.4 | – |
| CCOC(=O)CNC(=O)N(CC)Cc1ccc2c(c1)[C@H]1CC(N2)[C@H](O)CO1 (stereo in doubt) [Compound 23, Ethyl 2-{[ethyl({[(1R,9S,10S)-10-hydroxy-12-oxa-8-azatricyclo[7.3.1.0^2,7]trideca-2,4,6-trien-4-yl]methyl})carbamoyl]amino}acetate hydrochloride] | N | 700 ± 235 | – |
| CCOC(=O)CNC(=O)N(Cc1ccc(N)cc1)Cc1nnn(C)n1.Cl [Compound 19, Ethyl 2-({[(4-aminophenyl)methyl][(2-methyl-2H-1,2,3,4-tetrazol-5-yl)methyl]carbamoyl}amino)acetate hydrochloride] | Y | 184 ± 13 | type-II binding mode |
